# Laboratory results from patent US11464770B2, “Anticancer pharmaceutical composition” (NATIONAL CANCER CENTER, priority 2016, dated 2022).
# Read-outs that look alike come from different tables or passages of the source.
# Assays:
# [1] = test system: bladder cancer cell lines; experiment: Cell based assay, cell viability (CellTiter-Glo), bladder cancer cell lines; conditions: 72 hours treatment, 0 to 2 μM, CellTiter-Glo
# How it was run: (§1)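 Viability measured by ATP luminescence following 72 h treatment over a 0–2 μM final concentration range.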
# [2] = test system: prostate cancer cell lines (e.g. DU145/TXR); experiment: Cell based assay, cell viability (CellTiter-Glo), prostate cancer cell lines; conditions: Homo sapiens, 72 hours treatment, final concentration 0 to 2 μM
# How it was run: as §1
# [3] = test system: pancreatic cancer cell lines (e.g. MIA PaCa-2); experiment: Cell based assay, cell viability (CellTiter-Glo), pancreatic cancer cell lines; conditions: Homo sapiens
# How it was run: as §1
# [4] = test system: neuroblastoma cell lines; experiment: Cell based assay, cell viability (CellTiter-Glo), neuroblastoma cell lines; conditions: Homo sapiens; SH-SY5Y cell line
# How it was run: as §1
# [5] = test system: melanoma cell lines; experiment: Cell based assay, cell viability (CellTiter-Glo), melanoma cell lines; conditions: Homo sapiens; LOX-IMVI cell line
# How it was run: as §1
# [6] = test system: ovarian cancer cell lines; experiment: Cell based assay, cell viability (CellTiter-Glo), ovarian cancer cell lines; conditions: Homo sapiens; OVCAR-3 cells
# How it was run: as §1
# [7] = test system: renal cancer cell lines; experiment: Cell based assay, cell viability (CellTiter-Glo), renal cancer cell lines; conditions: Homo sapiens; ACHN cells
# How it was run: as §1
# [8] = 5637 cells, read-out: IC50, bladder cancer cell line 5637
# [9] = Homo sapiens, T-24, T24 cells, read-out: IC50, bladder cancer cell line T24
# [10] = Homo sapiens, J82 cells, read-out: IC50, bladder cancer cell line J82
# [11] = CWR22 cells, read-out: IC50, prostate cancer cell line CWR22
# [12] = DU-145, DU145/TXR cells, read-out: IC50, prostate cancer cell line DU145/TXR
# [13] = DU-145, DU145 cells, read-out: IC50, prostate cancer cell line DU145
# [14] = LNcap cells, read-out: IC50, prostate cancer cell line LNcap
# [15] = PC-3 cells, read-out: IC50, prostate cancer cell line PC-3
# [16] = pancreatic cancer cell line AsPC-1, 72 hours, read-out: IC50, AsPC-1
# [17] = pancreatic cancer cell line BxPC-3, 72 hours, read-out: IC50, BxPC-3
# [18] = pancreatic cancer cell line CFPAC-1, 72 hours, read-out: IC50, CFPAC-1
# [19] = pancreatic cancer cell line Capan-1, 72 hours, read-out: IC50, Capan-1
# [20] = pancreatic cancer cell line Capan-2, 72 hours, read-out: IC50, Capan-2
# [21] = pancreatic cancer cell line MIA PaCa-2, 72 hours, read-out: IC50, MIA PaCa-2
# [22] = pancreatic cancer cell line PANC-1, 72 hours, read-out: IC50, PANC-1
Structure (SMILES),"IC50 [1, 8] [nM]","IC50 [1, 9] [nM]","IC50 [1, 10] [nM]","IC50 [2, 11] [nM]","IC50 [2, 12] [nM]","IC50 [2, 13] [nM]","IC50 [2, 14] [nM]","IC50 [2, 15] [nM]","IC50 [3, 16] [nM]","IC50 [3, 17] [nM]","IC50 [3, 18] [nM]","IC50 [3, 19] [nM]","IC50 [3, 20] [nM]","IC50 [3, 21] [nM]","IC50 [3, 22] [nM]",IC50 [4] [nM],IC50 [5] [nM],IC50 [6] [nM],IC50 [7] [nM],"IC50 ([1]; Homo sapiens, KU-19-19 cells, read-out: IC50, bladder cancer cell line KU-19-19) [nM]"
"CC(=O)c1c([S+]([O-])Cc2ccc([S+]([O-])C(F)(F)F)cc2)[nH]c2c(Br)ccc(Cl)c2c1=O (centres unmarked) [Compound 64, 3-acetyl-8-bromo-5-chloro-2-((4-((trifluoromethyl)sulfinyl)benzyl)sulfinyl)quinolin-4(1H)-one]",1520,1040,1960,1490,1160,1570,1710,1430,> 2000,> 2000,> 10000,> 2000,> 2000,1220,> 2000,> 2000,1050,900,> 2000,
"CC(=O)c1c([S+]([O-])Cc2ccc(C(F)(F)F)cc2)[nH]c2c(Br)ccc(Cl)c2c1=O (centres unmarked) [Compound 70, 3-acetyl-8-bromo-5-chloro-2-((4-(trifluoromethyl)benzyl)sulfinyl)quinolin-4(1H)-one]",1730,1690,1940,1890,1190,1090,> 2000,1250,> 2000,> 2000,> 10000,> 2000,> 2000,1440,> 2000,> 2000,1190,1180,> 2000,
"CC(=O)c1c([S+]([O-])Cc2ccc(OC(F)(F)F)cc2)[nH]c2c(Br)ccc(Cl)c2c1=O (centres unmarked) [Compound 71, 3-acetyl-8-bromo-5-chloro-2-((4-(trifluoromethoxy)benzyl)sulfinyl)quinolin-4(1H)-one]",1510,1390,1980,> 2000,1230,1740,> 2000,1700,> 2000,> 2000,> 10000,> 2000,> 2000,1650,> 2000,> 2000,1410,1310,> 2000,
"CC(=O)c1c([S+]([O-])Cc2ccc(C(F)(F)F)o2)[nH]c2c(Br)ccc(Cl)c2c1=O (centres unmarked) [Compound 72, 3-acetyl-8-bromo-5-chloro-2-(((5-(trifluoromethyl)furan-2-yl)methyl)sulfinyl)quinolin-4(1H)-one]",1640,1250,1630,1520,890,710,1910,1280,2010,> 2000,> 10000,> 2000,> 2000,1000,> 2000,> 2000,920,730,> 2000,
"CC(=O)c1c([S+]([O-])Cc2ccc(C#N)cc2)[nH]c2c(Br)ccc(Cl)c2c1=O (centres unmarked) [Compound 73, 4-(((3-acetyl-8-bromo-5-chloro-4-oxo-1,4-dihydroquinolin-2-yl)sulfinyl)methyl)benzonitrile]",> 2000,,> 2000,> 2000,1770,> 2000,> 2000,1870,> 2000,> 2000,> 10000,> 2000,> 2000,1650,> 2000,> 2000,1670,1110,> 2000,> 2000
"CC(=O)c1c([S+]([O-])Cc2c(F)cccc2Cl)[nH]c2c(Br)ccc(Cl)c2c1=O (centres unmarked) [Compound 74, 3-acetyl-8-bromo-5-chloro-2-((2-chloro-6-fluorobenzyl)sulfinyl)quinolin-4(1H)-one]",1600,1070,> 2000,1720,1460,> 2000,1760,1470,> 2000,> 2000,> 10000,> 2000,> 2000,1180,> 2000,> 2000,1260,980,> 2000,
"COc1cc(S(F)(F)(F)(F)F)ccc1C[S+]([O-])c1[nH]c2c(Br)ccc(Cl)c2c(=O)c1C(C)=O (centres unmarked) [Compound 75, 3-acetyl-8-bromo-5-chloro-2-((2-methoxy-4-(pentafluoro--sulfanyl)benzyl)sulfinyl)quinolin-4(1H)-one]",1570,1330,1480,1880,1030,1020,> 2000,1440,> 2000,> 2000,> 10000,> 2000,> 2000,1320,> 2000,> 2000,1040,1360,> 2000,
"CC(=O)c1c([S+]([O-])Cc2cc(F)cc(S(F)(F)(F)(F)F)c2)[nH]c2c(Br)ccc(Cl)c2c1=O (centres unmarked) [Compound 76, 3-acetyl-8-bromo-5-chloro-2-((3-fluoro-5-(pentafluoro--sulfanyl)benzyl)sulfinyl)quinolin-4(1H)-one]",> 2000,1790,> 2000,> 2000,1170,1140,> 2000,1700,> 2000,> 2000,> 10000,> 2000,> 2000,1550,> 2000,> 2000,1370,1460,> 2000,
"CC(=O)c1c([S+]([O-])Cc2c(F)c(F)c(F)c(F)c2F)[nH]c2c(Br)ccc(Cl)c2c1=O (centres unmarked) [Compound 78, 3-acetyl-8-bromo-5-chloro-2-(((perfluorophenyl)methyl)sulfinyl)quinolin-4(1H)-one]",> 2000,1800,> 2000,> 2000,1380,1150,> 2000,1530,> 2000,> 2000,> 10000,> 2000,> 2000,1400,> 2000,> 2000,1370,1010,> 2000,
"CC(=O)c1c([S+]([O-])Cc2ccc(I)cc2)[nH]c2c(Cl)ccc(Cl)c2c1=O (centres unmarked) [Compound 83, 3-acetyl-5,8-dichloro-2-((4-iodobenzyl)sulfinyl)quinolin-4(1H)-one]",1370,1500,> 2000,1940,1050,1340,> 2000,> 2000,> 2000,> 2000,> 10000,> 2000,> 2000,1440,> 2000,1240,1570,820,> 2000,
"CC(=O)c1c([S+]([O-])Cc2cccnc2)[nH]c2c(Br)ccc(Cl)c2c1=O (centres unmarked) [Compound 84, 3-acetyl-8-bromo-5-chloro-2-((pyridin-3-ylmethyl)sulfinyl)quinolin-4(1H)-one]",> 2000,1030,> 2000,1420,1230,1390,> 2000,> 2000,1800,> 2000,> 10000,1500,> 2000,920,> 2000,600,1450,590,1380,
"Cc1cc(C[S+]([O-])c2[nH]c3c(Cl)ccc(Cl)c3c(=O)c2C(=O)C(C)C)no1 (centres unmarked) [Compound 86, 5,8-dichloro-3-isobutyryl-2-(((5-methylisoxazol-3-yl)methyl)sulfinyl)quinolin-4(1H)-one]",1360,1020,1610,1260,1110,1310,> 2000,1670,1280,> 2000,> 10000,1260,> 2000,640,> 2000,500,710,380,1330,
"COC(=O)c1ccc(C[S+]([O-])c2[nH]c3c(Cl)ccc(Cl)c3c(=O)c2C(C)=O)o1 (centres unmarked) [Compound 89, methyl 5-(((3-acetyl-5,8-dichloro-4-oxo-1,4-dihydroquinolin-2-yl)sulfinyl)methyl)furan-2-carboxylate]",> 2000,1750,> 2000,> 2000,1960,> 2000,> 2000,> 2000,> 2000,> 2000,> 10000,> 2000,> 2000,1410,> 2000,1040,1650,860,> 2000,
"Cc1cc(C[S+]([O-])c2[nH]c3c(Br)ccc(Cl)c3c(=O)c2C(=O)C(C)C)no1 (centres unmarked) [Compound 95, 8-bromo-5-chloro-3-isobutyryl-2-(((5-methylisoxazol-3-yl)methyl)sulfinyl)quinolin-4(1H)-one]",1230,980,1470,1080,940,840,1980,1700,1060,> 2000,> 10000,1250,> 2000,590,> 2000,480,540,380,1190,
